The values below come from PubChem BioAssay (NCI).

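Briefly, cells in 96-well plates were exposed to five compound concentrations for 48 h, and endpoints were estimated by linear interpolation. GI50 marks 50% less growth. Definition used: TGI = concentration required for complete inhibition of growth.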 Where only a bound is given, the exact number is not on record here.

Assay in all cases: inhibition of tumour cell growth, NCI panel, 48 h
Assay [1] concerns BT-549 breast.
In assay [2] the test system is DU-145 prostate.
Assay [3] concerns MCF7 breast.
Assay [4] has as its system MDA-MB-231 breast.
Assay [5] concerns MDA-MB-435.
In assay [6] the test system is NCI/ADR-RES ovarian.
The subject of assay [7] is T-47D breast.

Consider `Nc1nc(Cl)cc2c1ncn2C1OC(CO)C(O)C1O` (centres undefined), for which the GI50 in assay [1] is over 100 µM; in assay [2], over 100 µM; in assay [3], over 100 µM; in assay [4], 52.3 µM; in assay [5], over 100 µM; in assay [6], over 100 µM. Also, the GI50 in assay [7] is over 100 µM. Further, the TGI in assay [1], in assay [2], in assay [3], in assay [4], in assay [5] and in assay [6] was over 100 µM throughout. This compound yielded a TGI in assay [7] of over 100 µM.
Turning to `COC(=O)c1ccc2c(c1)[n+](=O)c(C(C)=O)c(C(F)(F)F)n2[O-]`, the GI50 in assay [1] was 2.07 µM; in assay [2], 1.83 µM; in assay [3] it was 1.76 µM; in assay [4] it was 1.98 µM; in assay [5] it was 1.75 µM; in assay [6], 2.48 µM. The GI50 in assay [7] is 2.06 µM. Besides, the TGI in assay [1] was 4.51 µM; in assay [2], 3.23 µM; in assay [3] it was 3.37 µM; in assay [4], 3.88 µM; in assay [5] it was 3.6 µM; in assay [6], 6.41 µM. The TGI in assay [7] amounted to 4.2 µM.
Regarding `COC(=O)C(=O)C(C(=O)C(=O)Nc1ccc(Cl)cc1Cl)c1nc2ccc(Cl)cc2[nH]c1=O` (centres undefined), the TGI in assay [1], in assay [2], in assay [3], in assay [4], in assay [5] and in assay [6] was over 100 µM in each case.
Regarding `COc1cc(C2CC(c3ccc(C)cc3)=NN2C(C)=O)ccc1Oc1ccnc2cc(Cl)ccc12` (centres undefined), the GI50 in assay [1] was 3.48 µM; in assay [2], over 100 µM; in assay [3] it was over 100 µM; in assay [4], 11.3 µM; in assay [5] it was over 100 µM; in assay [7], 2.28 µM. The TGI is over 100 µM in assay [1]; over 100 µM in assay [2]; over 100 µM in assay [3]; over 100 µM in assay [4]; over 100 µM in assay [5]; 73.4 µM in assay [7].
Take `COc1ccc(OC)c(-c2cc(-c3ccc(Cl)cc3)nn2-c2ccc(S(N)(=O)=O)cc2)c1`: the GI50 in assay [1] was 12.4 µM; in assay [2] it was 12.1 µM; in assay [3], 3.9 µM; in assay [4] it was 6.05 µM; in assay [5] it was 18.2 µM; in assay [6], 6.54 µM. Further, the TGI was determined as 29.4 µM in assay [1]; 25.9 µM in assay [2]; 26.2 µM in assay [3]; 19 µM in assay [4]; 43.9 µM in assay [5]; 22.2 µM in assay [6].
Take `O=C(CCCCCn1c2ccccc2c2c3c(c4c5ccccc5[nH]c4c21)C(=O)N(O)C3=O)N1CCOCC1`: the GI50 is 3.12 µM in assay [2]; 1.41 µM in assay [3]; 2.16 µM in assay [4]; 2.25 µM in assay [5]; 5.93 µM in assay [6]; 2.61 µM in assay [7]. Also, the TGI in assay [2] is 12.2 µM; in assay [3] it was over 100 µM; in assay [4], 5.87 µM; in assay [5], 5.58 µM; in assay [6] it was over 100 µM; in assay [7] it was 7.89 µM.
Regarding `COc1ccc(CNCCN2C(=O)c3ccc4c5c(ccc(c35)C2=O)C(=O)N(CCNCc2ccc(OC)cc2)C4=O)cc1`, the GI50 in assay [1] was 0.35 µM; in assay [2], 0.468 µM; in assay [3], 0.181 µM; in assay [4], 0.294 µM; in assay [5], 0.189 µM; in assay [6], 0.288 µM. Besides, in assay [7], the GI50 was 0.306 µM. The TGI in assay [1] came out at 1.03 µM; in assay [2], 1.7 µM; in assay [3], 0.533 µM; in assay [4], 1.13 µM; in assay [5], 0.375 µM; in assay [6], 1.21 µM. This compound also displayed a TGI in assay [7] of 1.42 µM.
Consider `COc1cc(C2C3=C(COC3=O)N(CCO)c3cc4c(cc32)OCCO4)cc(OC)c1O` (centres undefined), for which the GI50 in assay [1] was 5.71 µM; in assay [2], 1.71 µM; in assay [3], 0.957 µM; in assay [4], 4.41 µM; in assay [5], 0.331 µM; in assay [6], over 31.8 µM. In assay [7], the GI50 was 3.38 µM. Moreover, the TGI was over 27.8 µM in assay [1]; over 21.7 µM in assay [2]; over 50 µM in assay [3]; over 50 µM in assay [4]; 1.71 µM in assay [5]; over 50 µM in assay [6]. In assay [7], this compound displayed a TGI of over 50 µM.
For `CCCCC#Cc1c(I)n(C2OC(CO[Si](C)(C)C(C)(C)C)C3OC(C)(C)OC32)c(=O)[nH]c1=O` (centres undefined), the GI50 in assay [1] is 14.8 µM; in assay [2] it was 3.48 µM; in assay [4], 2.44 µM; in assay [5], 14.6 µM; in assay [6], 18.1 µM. Besides, the TGI in assay [1] was determined as 28.7 µM; in assay [2], 12.9 µM; in assay [4], 9.55 µM; in assay [5], 29.8 µM; in assay [6] it was 49.7 µM.
On to `C=CC[n+]1c(/C=C2\Sc3ccccc3N2C)sc(-c2ccccc2)c1-c1ccccc1`, for which the GI50 is 0.296 µM in assay [1]; 0.439 µM in assay [2]; 0.286 µM in assay [3]; 0.287 µM in assay [4]; 0.335 µM in assay [5]; 7.89 µM in assay [6]. In assay [7], the GI50 is 0.242 µM. In addition, the TGI was 0.907 µM in assay [1]; 12.2 µM in assay [2]; 1.77 µM in assay [3]; 2.99 µM in assay [4]; 1.68 µM in assay [5]; 61.7 µM in assay [6]. This compound also returned a TGI in assay [7] of 0.782 µM.
As for `COC(=O)C1=C(O)C(C(=O)OC)[C@@]2(O)[C@@H](C(=O)OC)C(c3ccc(OC(=O)C(Cc4ccccc4)NC(C)=O)cc3)C[C@@H]1[C@@H]2C(=O)OC` (some centres undefined), the GI50 in assay [1] is 38 µM; in assay [3], 17 µM; in assay [4] it was 21 µM; in assay [5] it was 23.5 µM; in assay [6], 60.7 µM; in assay [7] it was 39.2 µM. The TGI in assay [1] was over 100 µM; in assay [3], 95.3 µM; in assay [4] it was 58.8 µM; in assay [5], 50.2 µM; in assay [6], over 100 µM; in assay [7] it was over 100 µM.
